Patent US9944597B2, “Polysubstituted pyrroles having microtubule-disrupting, cytotoxic and antitumor activities and methods of use thereof” (THE BOARD OF REGENTS OF THE UNIVERSITY OF TEXAS SYSTEM, priority 2013, dated 2018)
Like-named read-outs stand apart in the source and are kept apart here.

Tests used:
[1] = tested on: HeLa WT-β-III cells; assay: Antiproliferative SRB assay, βIII-tubulin expressing HeLa; type: cell-based, human; settings: for IC50: Homo sapiens, HeLa, Table 49, βIII tubulin expressing line, 48 hr, SRB assay; for Rr (β-III): relative resistance: IC50 of expressing line divided by IC50 of parental HeLa
Protocol: (§1) Cell Culture. Various representative cancer and other cell lines were sourced and grown as described previously [Mooberry, S. L., et al., Mol. Pharm. 72, 132-140 (2007)]. MDA-MB-435 (human melanoma cancer cells), and MDA-MB-231 (human breast cancer cells) were grown in IMEM Richter's Medium (Life Technologies, Grand Island, N.Y.) with 10% FBS (Hyclone, Logan, Utah) and 25 μg/mL gentamicin sulfate (Life Technologies). A-10 (embryonic rat vascular smooth muscle cells) and HeLa (human cervical cancer cells), SK-OV-3 (human ovarian cancer cells) and SK-OV-3-MDR-1-M6/6 (a clone of the SK-OV-3 that was generated from SK-OV-3 cells by adenovirus-mediated expression of MDR1) were grown in Basal Medium Eagle (BME, Sigma-Aldrich, St. Louis, Mo.) containing Earle's salts, 50 μg/ml gentamicin sulfate, and 10% FBS. HeLa cells (a single-cell clone derived from transduction of HeLa cells with wild-type (WT) βIII-tubulin) were grown in Dulbecco's Modified Eagle's Medium (DMEM, Life Technologies) containing 50 μg/mL gentamicin sulfate and 10% FBS.
(§2) Antiproliferative Effects. The pyrrole compounds were evaluated for their antiproliferative effects in a panel of cancer cell lines. Cells were plated into 96-well plates at predetermined densities and allowed to attach and proliferate for 24 hr, and then the compounds were added. After a 48 hr exposure to the compounds, the cells were fixed with trichloroacetic acid and cellular protein was determined using the sulforhodamine B (SRB) assay (Skehan et al., J. Natl. Cancer Inst. 82, 1107-12, (1990); Boyd and Paull Drug Devel. Res. 34, 91-109, (1995)). Concentration response curves were constructed, and the IC50 (the concentration required to inhibit proliferation by 50%) values were determined from the linear portions of the log concentration-response curves as described previously [Tinley, T. L., et al., Cancer Res. 63, 3211-3220, (2003)] as shown in Table 48.
(§3) First, drug resistance mediated by the expression of βIII tubulin was evaluated in an isogenic HeLa cell line pair. Expression of the βIII tubulin isotype is associated with clinical drug resistance to the taxanes in ovarian cancer, non small-cell lung cancer and breast cancer [Galmarini, C. M., et al., Clin. Cancer Res. 14, 4511-4516 (2008)]. Secondly, drug resistance mediated by the expression of the drug efflux pump protein, Pgp, was evaluated in the isogenic SK-OV-3 cell line pair. The expression of Pgp can lead to lower intracellular drug concentrations and diminished cytotoxic effects both in vitro and in vivo. All tubulin-binding anticancer drugs used currently in the clinic, except cabazitaxel, are substrates for Pgp, thus limiting their utility in drug resistant tumors [Penson, R. T., et al., Gynecol. Oncol. 93, 98-106 (2004)]. Differences in sensitivity between the parent and transformed cell line, indicative of resistance, was determined by calculating relative resistance (Rr) values in the two pairs of isogenic cell lines (dividing the IC50 of the expressing cell line by the IC50 of the parental cell line).

[2] = tested on: MDA-MB-435 (human melanoma cancer cells); assay: Antiproliferative SRB assay, MDA-MB-435; type: cell-based; settings: Homo sapiens, MDA-MB-435, read-out: MDA-MB-435 Anti-Proliferative Activity, IC50
Protocol: as §1, §2

[3] = tested on: SK-OV-3-MDR-1-6/6 cells; assay: Antiproliferative SRB assay, Pgp expressing SK-OV-3; type: cell-based, human; settings: for IC50: Homo sapiens, SK-OV-3, Table 49, Pgp expressing line, 48 hr, SRB assay; for Rr (Pgp): relative resistance: IC50 of expressing line divided by IC50 of parental SK-OV-3
Protocol: as §1, §2
as §3, with “The expression of Pgp can lead to lower intracellular drug concentrations and diminished cytotoxic effects both in vitro and in vivo.” left out

[4] = tested on: SK-OV-3 (human ovarian cancer cells); assay: Antiproliferative SRB assay, SK-OV-3; type: cell-based; settings: Homo sapiens
Protocol: as §1, §2
as §3, with “The expression of Pgp can lead to lower intracellular drug concentrations and diminished cytotoxic effects both in vitro and in vivo.” left out

[5] = tested on: HeLa (human cervical cancer cells); assay: Antiproliferative SRB assay, HeLa; type: cell-based; settings: Homo sapiens, HeLa
Protocol: as §1, §2, §3

[6] = tested on: A-10 cells; assay: Cellular microtubule loss by indirect immunofluorescence; type: cell-based, rat; settings: Rattus norvegicus, A10; Table 50; concentration causing approximately 50% loss of interphase microtubules; read-out: EC50 Values (nM) for Microtubule Loss in A-10 cells
Protocol: The effects of representative compounds on cellular microtubules were evaluated in A-10 (embryonic rat vascular smooth muscle cell line) cells using indirect immunofluorescence techniques as previously described (Tinley et al., Cancer Res. 63, 3211-20 (2003)). Cells were visualized using a Nikon Eclipse 80i fluorescence microscope and NIS Elements software. Changes in both interphase and mitotic microtubules were noted and photographed. The EC50 values, the concentration that causes approximately 50% loss of interphase microtubules was determined by evaluating a range of concentrations of each compound and the percent cellular microtubule depolymerization that was observed visually at each concentration was noted.
Microtubules were visualized by indirect immunofluorescence using a β-tubulin antibody, and the DNA was visualized with DAPI. A representative concentration response curve for NT-7-16 is also shown in FIG. 1 that was used to calculate its corresponding EC50 for microtubule loss. Concentration response curves for microtubule loss were plotted using data from at least three experiments for each compound and the corresponding EC50 values for microtubule loss are presented in Table 50.

[7] = molecular target: T1, purified porcine brain tubulin (Sus scrofa, UniProt P02554); assay: Inhibition of polymerization of purified tubulin (absorbance at 340 nm); type: biochemical; settings: compound at 2 μM
T1 construct: of Purified Porcine Brain Tubulin; from tissue; host or cells: porcine brain

[8] = tested on: variety of cancer cell lines; settings: against cancer cell lines; cited from earlier work
[9] = tested on: HeLa cells; assay: Cell cycle distribution by flow cytometry; type: cell-based, human; settings: HeLa cells treated for 18 hr; FIG. 3: 25 nM NT-7-16, 12.5 nM paclitaxel
Protocol: The effects of NT-7-16 on cell cycle distribution were determined. […] The cells were stained with Kirshan's reagent (Kirshan, Cell Biol. 66, 188-93 (1975)), and cell cycle distribution was measured using a Millipore Muse flow cytometer.
The effects of NT-7-16 on cell cycle distribution were determined. […] The cells were stained with Kirshan's reagent (Kirshan Cell Biol. 66, 188-93. (1975)), and cell cycle distribution was measured using a Millipore Muse flow cytometer.

[10] = molecular target: colchicine binding site on tubulin (Sus scrofa, UniProt P02554); assay: Colchicine site binding, fluorometric assay
[11] = Table 48, 48 hr exposure, SRB assay
[12] = SK-OV-3, Table 48, 48 hr exposure, read-out: SK-OV-3 Anti-Proliferative Activity, IC50
[13] = SK-OV-3, Table 49, parental line, 48 hr, read-out: SK-OV-3 IC50
[14] = Table 48, 48 hr exposure, read-out: HeLa Anti-Proliferative Activity, IC50
[15] = Table 49, parental line, 48 hr, read-out: HeLa IC50

T1 sequence (P02554 whole entry): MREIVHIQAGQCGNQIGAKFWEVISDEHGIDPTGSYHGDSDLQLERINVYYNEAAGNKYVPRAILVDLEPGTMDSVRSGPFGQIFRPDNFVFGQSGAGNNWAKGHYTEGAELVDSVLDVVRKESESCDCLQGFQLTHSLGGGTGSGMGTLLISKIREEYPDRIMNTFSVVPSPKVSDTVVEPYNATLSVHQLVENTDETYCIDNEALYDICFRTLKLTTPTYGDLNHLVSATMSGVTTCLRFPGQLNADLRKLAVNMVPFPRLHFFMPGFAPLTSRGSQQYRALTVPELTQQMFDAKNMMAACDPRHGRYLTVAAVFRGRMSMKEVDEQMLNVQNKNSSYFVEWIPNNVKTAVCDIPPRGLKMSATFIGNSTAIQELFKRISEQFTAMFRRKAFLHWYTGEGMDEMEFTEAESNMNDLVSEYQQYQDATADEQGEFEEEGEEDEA
T1 sequence (P02550 whole entry partner): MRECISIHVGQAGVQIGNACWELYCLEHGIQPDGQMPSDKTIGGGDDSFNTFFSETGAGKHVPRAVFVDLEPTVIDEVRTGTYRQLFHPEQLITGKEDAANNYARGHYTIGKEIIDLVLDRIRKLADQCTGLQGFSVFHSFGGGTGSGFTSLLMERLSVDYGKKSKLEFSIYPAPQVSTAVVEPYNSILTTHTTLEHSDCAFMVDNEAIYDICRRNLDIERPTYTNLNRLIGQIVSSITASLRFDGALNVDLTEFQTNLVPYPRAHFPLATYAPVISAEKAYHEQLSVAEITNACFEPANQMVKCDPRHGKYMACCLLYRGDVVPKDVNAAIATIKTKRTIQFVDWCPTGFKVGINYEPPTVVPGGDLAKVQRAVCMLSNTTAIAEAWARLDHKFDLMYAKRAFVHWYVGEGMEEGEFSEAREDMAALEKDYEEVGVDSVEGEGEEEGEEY
Sequence of colchicine binding site on tubulin (P02554 whole entry): as the sequence (P02554 whole entry) above
Sequence of colchicine binding site on tubulin (P02550 whole entry partner): as the sequence (P02550 whole entry partner) above

| Compound | IC50 [1] [nM] | IC50 [2, 11] [nM] | IC50 ([2]; Table 52) [nM] | IC50 [3] [nM] | IC50 [4, 12] [nM] | melting point [°C] | IC50 [5, 14] [nM] | EC50 [6] [nM] | inhibition at 2 µM [7] [%] | effect on colchicine binding ([10]; at 100 μM) | effect on colchicine binding (FIG. 9) ([10]; result in words) | Rr (β-III) [1] | Rr (Pgp) [3] | IC50 [4, 13] [nM] | IC50 [5, 15] [nM] | fold less active than JG-03-14 in vitro [8] | cell cycle distribution [9] |
| --- | --- | --- | --- | --- | --- | --- | --- | --- | --- | --- | --- | --- | --- | --- | --- | --- | --- |
| CCOC(=O)c1[nH]c(Br)c(-c2cc(OC)c(OC)c(OC)c2)c1Br [4-[(3,4,5-trimethoxy)-phenyl]-3,5-dibromopyrrole 2-carboxylic acid ethyl ester] |  |  |  |  |  |  |  |  |  |  |  |  |  |  |  | more than 350 fold |  |
| CCOC(=O)c1[nH]c(C=O)c(-c2ccc(OC)c(OC)c2OC)c1Br [Example 2, 3-Bromo-4-(2,3,4-trimethoxyphenyl)-5-formyl-1H-pyrrole 2-carboxylic acid ethyl ester] | 104 ± 6.5 | 57 ± 5 | 57 ± 5 | 82.2 ± 9.4 | 72 ± 9.1 | 158 to 160 | 31.7 ± 4.8 | 66 | 68 |  |  | 3.3 | 1.1 | 72 ± 9.1 | 31.7 ± 4.8 |  |  |
| CCOC(=O)c1[nH]c(C(F)F)c(-c2ccc(OC)c(OC)c2OC)c1Br [Example 6, 3-Bromo-4-(2,3,4-trimethoxyphenyl)-5-(difluoromethinyl)-1H-pyrrole 2-carboxylic acid ethyl ester] | 184 ± 30.3 | 113 ± 6 | 113 ± 6 | 174 ± 12.5 | 227 ± 14 | 149 to 151 | 142 ± 11 | 315 | 55 |  |  | 1.3 | 0.8 | 227 ± 14 | 142 ± 11 |  |  |
| CCOC(=O)c1[nH]c(C#N)c(-c2ccc(OC)c(OC)c2OC)c1Br [Example 11, 3-Bromo-4-(2,3,4-trimethoxyphenyl)-5-cyano-1H-pyrrole 2-carboxylic acid ethyl ester] | 26.1 ± 0.8 | 19.6 ± 1.8 | 19.6 ± 1.8 | 42.2 ± 5.5 | 26.2 ± 2.1 | 173 to 176 | 20.6 ± 1.9 | 88.1 | 78 |  |  | 1.3 | 1.6 | 26.2 ± 2.1 | 20.6 ± 1.9 |  |  |

Continued, in another order:

| IC50 [1] [nM] | IC50 [2, 11] [nM] | IC50 ([2]; Table 52) [nM] | IC50 [3] [nM] | IC50 [4, 12] [nM] | melting point [°C] | IC50 [5, 14] [nM] | EC50 [6] [nM] | inhibition at 2 µM [7] [%] | effect on colchicine binding ([10]; at 100 μM) | effect on colchicine binding (FIG. 9) ([10]; result in words) | Compound | Rr (β-III) [1] | Rr (Pgp) [3] | IC50 [4, 13] [nM] | IC50 [5, 15] [nM] | fold less active than JG-03-14 in vitro [8] | cell cycle distribution [9] |
| --- | --- | --- | --- | --- | --- | --- | --- | --- | --- | --- | --- | --- | --- | --- | --- | --- | --- |
| 12.5 ± 0.2 | 7.6 ± 0.5 | 7.6 ± 0.5 | 17.5 ± 1.2 | 13.8 ± 0.9 | 125 to 128 | 11.9 ± 1.3 | 22 | 99 |  |  | CCOC(=O)c1[nH]c(C=NOC)c(-c2ccc(OC)c(OC)c2OC)c1Br (mixture of isomers) [Example 12, Cis/Trans-3-Bromo-4-(2,3,4-trimethoxyphenyl)-5-(O-methyl-oximino)-1H-pyrrole-2-carboxylic acid ethyl ester] | 1.1 | 1.3 | 13.8 ± 0.9 | 11.9 ± 1.3 |  |  |
| 21.1 ± 1.8 | 2 ± 0.1 |  | 2330 |  |  | 1.5 ± 0.05 |  |  |  |  | CC(=O)O[C@H]1C(=O)[C@@]2(C)[C@H]([C@H](OC(=O)c3ccccc3)[C@]3(O)C[C@H](OC(=O)[C@H](O)[C@@H](NC(=O)c4ccccc4)c4ccccc4)C(C)=C1C3(C)C)[C@]1(OC(C)=O)CO[C@@H]1C[C@@H]2O [paclitaxel, reference compound] | 14.1 |  |  | 1.5 ± 0.05 |  | initiated mitotic accumulation |
|  |  |  |  |  |  |  |  |  | no effect | does not | CC[C@]1(O)C[C@@H]2CN(CCc3c([nH]c4ccccc34)[C@@](C(=O)OC)(c3cc4c(cc3OC)N(C)[C@H]3[C@@](O)(C(=O)OC)[C@H](OC(C)=O)[C@]5(CC)C=CCN6CC[C@]43[C@@H]65)C2)C1 [vinblastine, reference compound] |  |  |  |  |  |  |
